Assay results as given in BindingDB's records for doi:10.1021/acsmedchemlett.8b00220 (Merck, 2018).
pIC50: −log10 of the molar value.

How the values were obtained:
[1] = Inhibition of CYP3A4 (unknown origin) co-incubated with substrate
[2] = Inhibition of CYP3A4 (unknown origin) preincubated followed by substrate addition

pIC50 [1]: < 4.52 | pIC50 [2]: 5.70
Structure (SMILES): CS[C@@]1(C(=O)Nc2ccc3[nH]nc(-c4ccc(F)cc4)c3c2)CCN(CC(=O)N2CC=C(c3ccc(-c4ncccn4)cc3)CC2)C1 [US8546404, 613]
